As usually defined, the pIC50 is −log10 of the IC50, conventionally taken in molar units.

The results in this text go back to patent publication US5494922A, “Allophanic acid derivatives” (Zeneca Limited, priority 1993, dated 1996).

Each structure is given as a SMILES string. pIC50: −log10 of the molar value. Structures can show the parent of a compound that is named as a salt.

The target in experiment [1] is T1, human, citrated, platelet-rich plasma (Homo sapiens, UniProt P05106+P08514).
T1 construct: aggregating human, citrated, platelet-rich plasma; endogenous in cells; host or cells: human platelets in citrated platelet-rich plasma
T1 sequence (P08514 32-887 limits assumed): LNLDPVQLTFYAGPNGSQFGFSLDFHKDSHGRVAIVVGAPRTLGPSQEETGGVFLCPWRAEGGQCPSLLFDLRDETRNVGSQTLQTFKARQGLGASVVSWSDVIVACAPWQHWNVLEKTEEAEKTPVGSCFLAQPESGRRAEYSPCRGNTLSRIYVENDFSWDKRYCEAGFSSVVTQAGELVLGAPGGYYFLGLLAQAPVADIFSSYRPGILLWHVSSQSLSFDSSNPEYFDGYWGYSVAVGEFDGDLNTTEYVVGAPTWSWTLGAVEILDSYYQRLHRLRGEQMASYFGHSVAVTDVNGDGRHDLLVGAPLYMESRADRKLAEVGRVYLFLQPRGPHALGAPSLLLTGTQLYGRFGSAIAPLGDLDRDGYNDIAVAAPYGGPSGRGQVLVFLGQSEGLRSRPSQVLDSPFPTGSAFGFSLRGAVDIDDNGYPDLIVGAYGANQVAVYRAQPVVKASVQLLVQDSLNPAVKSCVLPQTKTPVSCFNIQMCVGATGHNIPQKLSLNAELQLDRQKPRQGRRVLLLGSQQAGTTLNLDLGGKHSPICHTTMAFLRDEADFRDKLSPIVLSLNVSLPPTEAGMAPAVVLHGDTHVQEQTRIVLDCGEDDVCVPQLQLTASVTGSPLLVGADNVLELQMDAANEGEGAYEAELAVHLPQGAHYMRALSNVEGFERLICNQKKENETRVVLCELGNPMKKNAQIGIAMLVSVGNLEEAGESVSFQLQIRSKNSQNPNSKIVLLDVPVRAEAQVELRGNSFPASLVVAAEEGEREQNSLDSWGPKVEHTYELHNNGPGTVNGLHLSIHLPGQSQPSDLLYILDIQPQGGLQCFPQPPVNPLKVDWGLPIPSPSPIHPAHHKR
T1 sequence (P08514 891-1039 limits assumed): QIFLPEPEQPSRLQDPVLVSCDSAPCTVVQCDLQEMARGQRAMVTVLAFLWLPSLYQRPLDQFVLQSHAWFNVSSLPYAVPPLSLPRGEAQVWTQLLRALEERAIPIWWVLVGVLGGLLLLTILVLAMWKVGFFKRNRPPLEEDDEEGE
T1 sequence (P05106 27-788): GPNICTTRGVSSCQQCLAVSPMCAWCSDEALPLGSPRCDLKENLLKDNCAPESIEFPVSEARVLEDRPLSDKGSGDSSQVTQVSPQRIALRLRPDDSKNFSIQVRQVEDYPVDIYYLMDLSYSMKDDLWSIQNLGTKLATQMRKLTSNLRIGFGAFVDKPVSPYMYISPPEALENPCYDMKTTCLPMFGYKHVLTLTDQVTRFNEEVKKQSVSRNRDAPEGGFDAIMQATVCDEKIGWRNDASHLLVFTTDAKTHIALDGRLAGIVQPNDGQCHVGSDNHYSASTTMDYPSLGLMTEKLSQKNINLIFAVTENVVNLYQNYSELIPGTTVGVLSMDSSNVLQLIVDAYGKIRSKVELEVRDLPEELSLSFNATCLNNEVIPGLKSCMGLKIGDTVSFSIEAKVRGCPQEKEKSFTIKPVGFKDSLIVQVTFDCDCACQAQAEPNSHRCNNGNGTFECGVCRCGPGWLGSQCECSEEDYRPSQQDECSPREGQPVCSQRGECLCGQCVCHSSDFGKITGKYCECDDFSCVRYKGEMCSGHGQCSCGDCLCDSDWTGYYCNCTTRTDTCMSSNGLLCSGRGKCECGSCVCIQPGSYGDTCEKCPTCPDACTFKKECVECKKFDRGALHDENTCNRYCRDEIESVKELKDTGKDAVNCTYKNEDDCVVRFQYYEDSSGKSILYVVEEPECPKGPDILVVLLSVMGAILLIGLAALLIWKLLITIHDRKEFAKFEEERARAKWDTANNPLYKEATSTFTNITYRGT
Nature of the experiment: test (a): inhibition of ADP stimulated platelet aggregation in human, citrated, platelet-rich plasma. It counts as cell-based. The following applies: read-out: pA2 (converted). From the text: (i) aggregating human, citrated, platelet-rich plasma by addition of adenosine diphosphate (ADP) so as to generate a dose-response curve;
(ii) generating a dose-response curve for ADP stimulated platelet aggregation in the presence of increasing amounts of a test compound (generally in the range 10^-5 M to 10^-10 M); and
(iii) calculating a pA2 value indicating potency of platelet aggregation inhibition for the test compound, averaged over several concentrations, from the calculated 50% response value for ADP aggregation in the presence and absence of the test compound.

The target of experiment [2] is T2, purified human platelet fibrinogen receptor (GPIIb/IIIa) (Homo sapiens, UniProt P05106+P08514).
T2 construct: Glycoprotein IIb/IIIa is isolated from human platelet lysates; from tissue
T2 sequence (P08514 32-887 limits assumed): as the sequence (P08514 32-887 limits assumed) above
T2 sequence (P08514 891-1039 limits assumed): as the sequence (P08514 891-1039 limits assumed) above
T2 sequence (P05106 27-788): as the sequence (P05106 27-788) above
The experiment in a line: test (b): GPIIb/IIIa ELISA, inhibition of biotinylated fibrinogen binding. The following applies: 50% inhibition of biotinylated fibrinogen binding to GPIIb/IIIa. How it is done:
(i) Preparation of human platelet lysates
Platelet rich plasma (prp) is harvested by centrifugation (1000 rpm, 15 minutes) of whole blood anticoagulated with acid citrate dextrose (trisodium citrate 85 mM, citric acid 70 mM, d-glucose 110 mM) 1 part to 6 parts blood. Prostacyclin (PGI2, 1 μM) is added to the prp before centrifugation (2400 rpm, 15 min) and the resulting pellet is resuspended in modified Tyrodes' solution (NaCl 130 mM, […], NaHCO3, 12 mM, NaH2 PO4 0.5 mM, MgCl2 1 mM, CaCl2 20 mM, Glucose 12 mM, HEPES 5 mM) containing bovine serum albumin 3.5 g/L, PGI2 1 μM and hirudin 0.5 U/ml. The platelet suspension is centrifuged (2400 rpm, 15 minutes) and the resultant pellet resuspended in 500 μl of lysis buffer (octyl glucoside 50 mM, HEPES 10 mM, NaCl 150 mM, CaCl2 1 mM, MgCl2 1 mM, PMSF 1 mM, NEM 10 mM, leupeptin 0.1 mM), agitated at 4° C. for 15 minutes then centrifuged at 24000 rpm, 15 minutes. The supernatant is stored at 4° C. and the pellet re-suspended in 500 μl of lysis buffer. […]
96 well microtitre plates are coated with 100 μl purified human platelet fibrinogen receptor (GPIIb/IIIa) diluted in coating buffer (Tris-HCl 20 mM, NaCl 150 mM, CaCl2 1 mM, pH 7.4) and left overnight at 4° C. […] Colour is allowed to develop for 10-15 minutes before optical densities are read at 650 nm. […]
(In general: An ELISA detects its analyte on a solid surface through an enzyme-linked reagent.)

`N=C(N)c1ccc(NC(=O)NC(=O)c2ccc(OCC(=O)O)cc2)cc1` [Example 2, 4-[4-(4-Amidinophenyl)allophanoyl]phenoxyacetic acid]: in experiment [1], the Kb is 25.1 nM. For the same molecule, the pIC50 in experiment [2] was 7.60.
Take `COC(=O)COc1ccc(C(=O)NC(=O)Nc2ccc(C(=N)N)cc2)cc1` [Example 1, Methyl 4-[4-(4-amidinophenyl)allophoyl]phenoxyacetate, acetate salt]: the Kb in experiment [1] is 31.6 nM. The molecule also showed a negative logarithm of the IC50 (pIC50) in experiment [2] of 6.90.
